Laboratory results reported in patent US20210338686A1, “COMBINATION CANCER THERAPY WITH PENTAAZA MACROCYCLIC RING COMPLEX AND PLATINUM-BASED ANTICANCER AGENT” (Galera Labs, LLC, priority 2018, published 2021).

Key:
[1] = system: H460 human non-small cell lung carcinoma (NSCLC) cells; assay: Survival of H460 cells in culture with GC4419 and cisplatin; type: cell-based; conditions: 24 μM GC4419 added to cisplatin (indicated concentrations), 120 hrs, vs cisplatin alone; FIG. 1
Description: After 120 hrs the surviving fraction of cells was determined.

[2] = system: H1299 human NSCLC cells, modified to inducibly overexpress catalase (CAT) (H1299CAT); assay: Survival of H1299CAT cells with GC4419, cisplatin and catalase overexpression; type: cell-based; conditions: 24 μM GC4419 added to cisplatin, 120 hrs, FIG. 2
Description: CAT overexpression in this line (H1299CAT) was induced by administration of doxycycline, which turned on transcription of the inserted catalase genes.

[3] = system: PARP (poly (ADP ribosyl) polymerase) in H460 NSCLC cells; assay: PARP activation in H460 cells (Western blot, 89 kd active / 116 kd inactive form); type: cell-based, human; conditions: 24 hr
Description: PARP is a nuclear enzyme involved in DNA repair of single strand breaks and is activated following cell stress including chemotherapy and irradiation.

[4] = system: PARP in H1299 (wild type) NSCLC cells; assay: PARP activation in H1299 (wild type) cells (Western blot); type: cell-based, human; conditions: 24 hr
PARP in H1299CAT cells = assay: PARP activation in H1299CAT cells with doxycycline induction of CAT overexpression; type: cell-based, human; conditions: CAT induced with doxycycline, 24 hr
Description: When treated with doxcycline, H1299CAT cells express greater levels of human catalase (CAT) than the “parent” cells, H1299 (wild type), eliminating all or part of the H2O2 generated from superoxide by GC4419 or other Mn pentaazamacrocyclic dismutase mimetcs.

[5] = system: H460 and H1299 (wild type) cells; assay: Total reactive oxygen species (CellROX probe, flow cytometer); type: cell-based, human; conditions: FIGS. 7A-7D
Description: After the treatments and incubations CellROX fluorogenic probes for total ROS were added for 30 minutes continued incubation and the CellROX signal was measured using a flow cytometer.

[6] = system: H460 and H1299 (wild type) cells; assay: Mitochondrial superoxide (MitoSOX probe, flow cytometer); type: cell-based, human; conditions: FIGS. 8A-8D
[7] = system: H460 and H1299 (wild type) cells; assay: Hydrogen peroxide (P0-1 probe); type: cell-based, human; conditions: FIGS. 9A-9D
[8] = system: cisplatin-induced acute kidney injury (AKI) model, male C57BL/6J mice; assay: Cisplatin-induced acute kidney injury (AKI) model in mice; type: in vivo
Description: 4 month old male C57BL/6J mice (young) were purchased from Jackson Laboratories and 18 month old mice (old) were obtained as collaboration with Dr. Amy Sindler (University of Iowa) from the National institute of Aging. All mice were maintained in accordance with ACURF approval #4121235 at the University of Iowa Animal Care facility. Mice were maintained on normal diets and water ad libitum through the course of the experiment.
Animals were weighed every other day following the start of treatment with GC4419.

[9] = system: athymic female Nu/Nu (nude) mice implanted with SQ20B human head and neck squamous cell carcinoma cells; assay: Cisplatin-induced hematotoxicity in nude mice bearing SQ20B tumors; type: in vivo; conditions: 10 mg/kg GC4419 every day added to cisplatin + IR
Description: 7 week old athymic female Nu/Nu (nude) mice were implanted in a hind leg with SQ20B human head and neck squamous cell carcinoma cells. […] Mice were assessed for blood counts by tail vein blood collection either 2 days or 2 weeks after the treatment period.

[10] = system: VEGFr inhibitor-induced pulmonary disease; conditions: rat model; Tuder et al. 2003; cited from earlier work
[11] = system: oral mucositis in head-and-neck cancer patients; conditions: head-and-neck cancer patients undergoing chemoradiation therapy; Anderson 2015; cited from earlier work
[12] = system: experimental model of colitis; conditions: rats; Cuzzocrea et al. 2001; cited from earlier work
[13] = system: acute, radiation-induced oral mucositis; conditions: hamster oral mucositis; Murphy et al. 2008; cited from earlier work
[14] = system: lethal total body irradiation; conditions: adult mice, Thompson et al. 2010; cited from earlier work
inflammation = conditions: rat model; Salvemini et al. 1999; cited from earlier work
[15] = system: collagen-induced arthritis; conditions: rat collagen-induced arthritis; Salvemini et al. 2001; cited from earlier work
[16] = 24 μM GC4419, both cancer cell lines
[17] = 10 mg/kg GC4419 daily from 4 days prior to 10 mg/kg cisplatin, 72 hours after cisplatin, FIG. 10A
[18] = 1 μM cisplatin or cisplatin plus 6 Gy IR

**Q.** Which results are given for `[Cl][Mn][Cl].c1cc2nc(c1)CN[C@H]1CCCC[C@@H]1NCCN[C@H]1CCCC[C@@H]1NC2` [GC4419]?
**A.** surviving fraction of cells [1]: decreased the surviving fraction of H460 cells; surviving fraction of cells ([2]; with CAT overexpression (doxycycline induced)): abrogated the GC4419 contribution to cisplatin response; surviving fraction of cells ([2]; without CAT overexpression (wt), vs cisplatin alone): decreased the surviving fraction; PARP activity (ratio of 89 kd active form to 116 kd inactive form) ([3]; 24 μM GC4419 added to 1 μM cisplatin, vs cisplatin, FIG. 3): further and significantly (p<0.01) increased PARP activity; PARP activity (ratio of 89 kd active form to 116 kd inactive form) ([3]; 24 μM GC4419 added to 6 Gy IR + 1 μM cisplatin, FIG. 5): significantly increased (p<0.01); PARP activity (ratio of 89 kd active form to 116 kd inactive form) ([3]; 24 μM GC4419 added to 6 Gy IR, vs radiation alone, FIG. 5): significantly increased PARP activity over that seen with radiation alone; PARP activity (ratio of 89 kd active form to 116 kd inactive form) ([4]; 24 μM GC4419 added to 10 μM cisplatin, vs cisplatin, FIG. 4): further and significantly p<0.01) increased PARP activity; PARP activity (ratio of 89 kd active form to 116 kd inactive form) ([4]; 24 μM GC4419 added to 6 Gy IR + 1 μM cisplatin, FIG. 6A): significantly increased (p<0.0.05); PARP activity (ratio of 89 kd active form to 116 kd inactive form) ([4]; 24 μM GC4419 added to 6 Gy IR, vs radiation alone, FIG. 6A): significantly increased PARP activity over that seen with radiation alone; PARP activation response to cisplatin (PARP in H1299CAT cells; 24 μM GC4419 + 1 μM cisplatin, p<0.01, FIG. 6B): reduced the PARP activation response; PARP activation response to IR+cisplatin (PARP in H1299CAT cells; 24 μM GC4419 + 6 Gy IR + 1 μM cisplatin, p<0.001, FIG. 6C): reduced the PARP activation response; PARP activation response to IR (PARP in H1299CAT cells; 24 μM GC4419 + 6 Gy IR, p<0.05, FIG. 6C): reduced the PARP activation response; total ROS (CellROX signal) ([5]; 24 μM GC4419 added to cisplatin therapy): synergistic effect on total ROS; total ROS (CellROX signal) ([5]; 24 μM GC4419 used alone, either cancer cell line): little effect on total ROS; basal levels of mitochondrial superoxide (MitoSOX signal) [6, 16]: significantly reduced the basal levels of mitochondrial superoxide; mitochondrial superoxide (MitoSOX signal) ([6]; 24 μM GC4419 added to cisplatin or cisplatin plus IR): significantly reduced the increase in mitochondrial superoxide; basal levels of H2O2 [7, 16]: significantly increases both the basal levels of H2O2; H2O2 ([7]; 24 μM GC4419 added to cisplatin or cisplatin plus IR, both cancer cell lines): significantly further increases the increase in H2O2; survival ([8]; 10 mg/kg GC4419 daily + 10 mg/kg cisplatin, old mice, FIG. 10D): prevented cisplatin mortality in the old mice; body weight ([8]; 10 mg/kg GC4419 daily + 10 mg/kg cisplatin, young and old mice, FIG. 10C): reduced the amount of weight loss in both sets of mice; kidney injury biomarkers KIM1 and NGAL ([8]; 10 mg/kg GC4419 daily + 10 mg/kg cisplatin, FIG. 10B): prevented that injury; creatinine level [8, 17]: completely prevented these increases; whole blood urea nitrogen (BUN) level [8, 17]: completely prevented these increases; leukocyte (WBC) and lymphocyte count ([9]; 2 days and 2 weeks after the end of treatment, FIG. 11B): stimulated leukocyte (WBC) and proportionally lymphocyte subset production; neutrophil percentage ([9]; FIG. 11C): maintained neutrophil percentage at apparently normal levels; eosinophil percentage ([9]; FIG. 11D): maintained eosinophil percentage at apparently normal levels; platelets ([9]; two days after the end of treatments, FIG. 11A): significantly restored platelet levels; VEGFr inhibitor-induced pulmonary disease [10]: attenuate VEGFr inhibitor-induced pulmonary disease; oral mucositis [11]: reduce oral mucositis

**Q.** With `N.N.[Cl][Pt][Cl]` [cisplatin, reference compound] as the compound, how does the “total ROS (CellROX signal)” value [5, 18] read?
**A.** increased total ROS

**Q.** And the “mitochondrial superoxide (MitoSOX signal)” value [6, 18]?
**A.** increase in mitochondrial superoxide

**Q.** And the H2O2 [7, 18]?
**A.** increase in H2O2

**Q.** With `[Cl-].[Cl-].[Mn+2].c1cc2nc(c1)CN[C@@H]1CCCC[C@H]1NCCN[C@@H]1CCCC[C@H]1NC2` [GC4403] as the compound, how does the “injury to the colon” value [12] read?
**A.** very significantly reduce the injury to the colon

**Q.** What about the radiation damage [13] of the same compound?
**A.** attenuate the radiation damage

**Q.** And the radiation damage [14]?
**A.** attenuate the radiation damage

**Q.** And the inflammation (inflammation)?
**A.** inhibit inflammation

**Q.** And the joint disease [15]?
**A.** prevent joint disease
